Experimental data: US20240182481A1 (Tango Therapeutics, Inc., priority 2021, published 2024)

Columns and labels:
USP1-UAF1 = USP1-UAF1 (Homo sapiens, UniProt O94782); experiment: Ubiquitin Rhodamine assay for USP1-UAF1 activity; format: biochemical
Protocol: Certain compounds of the disclosure were assessed for USP1-UAF1 activity in a Ubiquitin Rhodamine assay as described in Example 135.

[1] = tested on: MDA-MB-436 (BRCA1 mutant) cell line; experiment: Viability assay in BRCA1 mutant cell line MDA-MB-436; format: cell-based; conditions: Homo sapiens, MDA-MB-436, viability, BRCA1 mutant MDA-MB-436; read-out: MDA-MB-436 rel IC50
Description: (§1) Table 1 also indicates IC50 values in a viability assay for a non-isogenic pair of BRCA1 mutant (column 5—MDA-MB-436) and BRCA1 WT (column 6—HCC1954) cell lines. These values indicate the effect of treatment with compound on cell survival.

[2] = tested on: HCC1954 (BRCA1 WT) cell line; experiment: Viability assay in BRCA1 WT cell line HCC1954; format: cell-based; conditions: Homo sapiens, read-out: HCC 1954 IC50 rel IC50
Description: as §1

monoubiquitinated PCNA = experiment: AlphaLISA assay measuring monoubiquitinated PCNA in MDA-MB-436; format: cell-based; conditions: Homo sapiens, read-out: Alpha LISA IC50
Description: Table 1 also indicates IC50 values for exemplary compounds in an AlphaLISA assay measuring monoubiquitinated PCNA in a BRCA1 mutant cell line (MDA-MB-436; column 7).

Sequence of USP1-UAF1 (O94782 whole entry): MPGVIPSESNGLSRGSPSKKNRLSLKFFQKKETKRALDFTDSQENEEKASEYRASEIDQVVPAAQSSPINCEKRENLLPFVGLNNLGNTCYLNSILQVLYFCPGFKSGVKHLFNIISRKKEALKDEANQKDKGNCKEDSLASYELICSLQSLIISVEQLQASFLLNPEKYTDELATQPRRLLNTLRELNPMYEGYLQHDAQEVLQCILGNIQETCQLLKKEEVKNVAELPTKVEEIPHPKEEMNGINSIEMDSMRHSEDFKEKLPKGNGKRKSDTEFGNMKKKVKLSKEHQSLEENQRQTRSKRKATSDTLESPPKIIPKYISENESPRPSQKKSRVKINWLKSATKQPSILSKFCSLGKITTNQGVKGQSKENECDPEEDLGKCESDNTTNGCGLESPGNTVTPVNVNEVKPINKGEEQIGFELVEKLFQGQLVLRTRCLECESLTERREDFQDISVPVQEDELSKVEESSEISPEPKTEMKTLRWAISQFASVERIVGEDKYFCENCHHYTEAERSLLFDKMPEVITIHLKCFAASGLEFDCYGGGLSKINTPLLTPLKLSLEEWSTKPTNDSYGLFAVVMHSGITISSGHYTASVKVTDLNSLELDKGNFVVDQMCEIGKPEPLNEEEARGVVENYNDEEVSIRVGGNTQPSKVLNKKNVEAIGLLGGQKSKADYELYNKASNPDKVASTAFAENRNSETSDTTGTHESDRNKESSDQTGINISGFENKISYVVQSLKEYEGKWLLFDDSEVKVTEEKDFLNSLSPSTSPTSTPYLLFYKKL
Sequence of USP1-UAF1 (Q8TAF3 whole entry partner): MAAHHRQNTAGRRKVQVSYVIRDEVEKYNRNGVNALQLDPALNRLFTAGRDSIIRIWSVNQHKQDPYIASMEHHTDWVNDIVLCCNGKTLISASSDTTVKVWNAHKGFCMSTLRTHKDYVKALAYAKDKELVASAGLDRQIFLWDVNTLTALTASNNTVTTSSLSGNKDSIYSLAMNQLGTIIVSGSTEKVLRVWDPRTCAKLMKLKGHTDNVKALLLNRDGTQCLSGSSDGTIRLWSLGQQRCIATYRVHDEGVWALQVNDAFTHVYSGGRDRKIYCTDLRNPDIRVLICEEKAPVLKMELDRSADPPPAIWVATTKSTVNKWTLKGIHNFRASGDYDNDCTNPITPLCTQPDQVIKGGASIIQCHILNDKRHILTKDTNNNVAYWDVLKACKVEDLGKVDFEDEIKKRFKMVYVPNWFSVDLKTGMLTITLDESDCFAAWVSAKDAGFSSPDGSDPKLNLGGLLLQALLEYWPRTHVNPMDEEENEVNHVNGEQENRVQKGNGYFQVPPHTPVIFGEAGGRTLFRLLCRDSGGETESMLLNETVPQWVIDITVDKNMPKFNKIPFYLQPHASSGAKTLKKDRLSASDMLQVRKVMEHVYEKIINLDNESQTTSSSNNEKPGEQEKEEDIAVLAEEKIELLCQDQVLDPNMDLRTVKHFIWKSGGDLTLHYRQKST

Structure (SMILES) | IC50 (USP1-UAF1) [nM] | IC50 [1] [nM] | IC50 [2] [nM] | IC50 (monoubiquitinated PCNA) [nM]
Cn1cc(C(F)(F)F)nc1-c1ccc(Cc2c[nH]c3cnc(-c4cccnc4C4CC4)cc23)cc1 [Compound 66, 2-cyclopropyl-3-[3-([4-[1-methyl-4-(trifluoromethyl)imidazol-2-yl]phenyl]methyl)-1H-pyrrolo[2,3-c]pyridin-5-yl]pyridine] | 30 to 100 | 100 to 250 | 250 to 10000 | < 100
Cn1cc(C(F)(F)F)nc1-c1ccc(Sc2c[nH]c3cnc(-c4ccccc4C(F)(F)F)nc23)cc1 [Compound 84, 7-[4-[1-methyl-4-(trifluoromethyl)imidazol-2-yl]phenyl]sulfanyl-2-[2-(trifluoromethyl)phenyl]-5H-pyrrolo[3,2-d]pyrimidine] | 100 to 10000 | 250 to 10000 | ≥ 10000 | 250 to 10000
COc1nccc(C2CC2)c1-c1ncc2[nH]nc(Cc3ccc(-c4nc(C(F)(F)F)cn4C)cc3)c2n1 [Compound 205, 5-(4-cyclopropyl-2-methoxy-3-pyridyl)-3-[[4-[1-methyl-4-(trifluoromethyl)imidazol-2-yl]phenyl]methyl]-1H-pyrazolo[4,3-d]pyrimidine] | < 30 | < 100 | ≥ 10000 | < 100
CC(C)n1cc(C(F)(F)F)nc1-c1ccc(Cc2c[nH]c3cnc(-c4cccnc4OC(F)F)nc23)cc1 [Compound 28, 2-[2-(difluoromethoxy)-3-pyridyl]-7-[[4-[1-isopropyl-4-(trifluoromethyl)imidazol-2-yl]phenyl]methyl]-5H-pyrrolo[3,2-d]pyrimidine] | 30 to 100 | < 100 | ≥ 10000 | 100 to 250
COc1ncnc(C2CC2)c1-c1ncc2[nH]nc(Cc3ccc(-n4nc(C(F)(F)F)cc4OC)cc3)c2n1 [Compound 140, 5-(4-cyclopropyl-6-methoxy-pyrimidin-5-yl)-3-[[4-[5-methoxy-3-(trifluoromethyl)pyrazol-1-yl]phenyl]methyl]-1H-pyrazolo[4,3-d]pyrimidine] | < 30 | < 100 | 250 to 10000 | 100 to 250
COc1ncnc(C2CC2)c1-c1ncc2[nH]cc([C@@H](c3ccc(-c4nc(C(F)(F)F)cn4C)cc3)C(C)C)c2n1 (single isomer, unassigned) [Compound 151] | 30 to 100 | 100 to 250 | 250 to 10000 | < 100
C[C@H](Oc1ncccc1-c1ncc2[nH]cc(Cc3ccc(-c4nc(C(F)(F)F)cn4C)cc3)c2n1)C(F)(F)F (single isomer, unassigned) [Compound 51] | < 30 | < 100 | 250 to 10000 | < 100
COc1ncnc(C2CC2)c1-c1nc(OC)c2[nH]cc(Cc3ccc(-c4nc(C(F)(F)F)cn4C)cc3)c2n1 [Compound 160] | 100 to 10000 | 100 to 250 | 250 to 10000 | 250 to 10000
COc1ncnc(C2CC2)c1-c1cc2c(Cc3ccc(-c4nc(C(F)(F)F)cn4C)cc3)c[nH]c2cn1 [Compound 23, 5-(4-cyclopropyl-6-methoxy-pyrimidin-5-yl)-3-[[4-[1-methyl-4-(trifluoromethyl)imidazol-2-yl]phenyl]methyl]-1H-pyrrolo[2,3-c]pyridine] | < 30 | < 100 | 250 to 10000 | < 100
COc1ncnc(C2CC2)c1-c1ncc2[nH]cc(Cc3ccc(-c4nc(C(F)(F)F)cn4C)cc3)c2n1 [Compound 65, 2-(4-cyclopropyl-6-methoxy-pyrimidin-5-yl)-7-[[4-[1-methyl-4-(trifluoromethyl)imidazol-2-yl]phenyl]methyl]-5H-pyrrolo[3,2-d]pyrimidine] | < 30 | < 100 | ≥ 10000 | < 100
COc1ncnc(C2CC2)c1-c1nc(C)c2[nH]cc(Cc3ccc(-c4nc(C(F)(F)F)cn4C)cc3)c2n1 [Compound 148, 2-(4-cyclopropyl-6-methoxy-pyrimidin-5-yl)-4-methyl-7-[[4-[1-methyl-4-(trifluoromethyl)imidazol-2-yl]phenyl]methyl]-5H-pyrrolo[3,2-d]pyrimidine] | < 30 | < 100 | ≥ 10000 | < 100
COc1ncnc(C2CC2)c1-c1ncc2c(n1)c(Cc1ccc(-n3nc(C#N)cc3C)cc1)cn2C [Compound 107, 1-[4-[[2-(4-cyclopropyl-6-methoxy-pyrimidin-5-yl)-5-methyl-pyrrolo[3,2-d]pyrimidin-7-yl]methyl]phenyl]-5-methyl-pyrazole-3-carbonitrile] | 30 to 100 | < 100 | ≥ 10000 | < 100

Results, then the compound that gave them:

IC50 (USP1-UAF1) [nM] | IC50 [1] [nM] | IC50 [2] [nM] | IC50 (monoubiquitinated PCNA) [nM] | Structure (SMILES)
30 to 100 | 100 to 250 | ≥ 10000 | < 100 | CC(C)c1ccccc1-c1ncc2[nH]cc(Oc3ccc(-c4nc(C(F)(F)F)cn4C)cc3)c2n1 [Compound 2, 2-(2-isopropylphenyl)-7-[4-[1-methyl-4-(trifluoromethyl)imidazol-2-yl]phenoxy]-5H-pyrrolo[3,2-d]pyrimidine]
< 30 | < 100 | 250 to 10000 | < 100 | CC(C)n1cc(C(F)(F)F)nc1-c1ccc(Cc2n[nH]c3cnc(-c4c(OC(F)F)ncnc4C4CC4)nc23)cc1 [Compound 137, 5-(4-cyclopropyl-6-(difluoromethoxy)pyrimidin-5-yl)-3-(4-(1-isopropyl-4-(trifluoromethyl)-1H-imidazol-2-yl)benzyl)-1H-pyrazolo[4,3-d]pyrimidine]
< 30 | < 100 | ≥ 10000 | < 100 | [2H]C([2H])([2H])Oc1ncnc(C2CC2)c1-c1ncc2[nH]nc(Cc3ccc(-c4nc(C(F)(F)F)cn4C)cc3)c2n1 [Compound 163, 5-[4-cyclopropyl-6-(trideuteriomethoxy)pyrimidin-5-yl]-3-[[4-[1-methyl-4-(trifluoromethyl)imidazol-2-yl]phenyl]methyl]-1H-pyrazolo[4,3-d]pyrimidine]
< 30 | < 100 | 250 to 10000 | < 100 | Cn1cc(C(F)(F)F)nc1-c1ccc(Cc2c[nH]c3cnc(-c4cccnc4OCC(F)(F)F)nc23)cc1 [Compound 78]
< 30 | < 100 | ≥ 10000 | < 100 | COc1ncnc(C2CC2)c1-c1ncc2[nH]cc(Cc3ccc(-n4nc(C(F)(F)F)cc4C)c(F)c3)c2n1 [Compound 88, 2-(4-cyclopropyl-6-methoxy-pyrimidin-5-yl)-7-[[3-fluoro-4-[5-methyl-3-(trifluoromethyl)pyrazol-1-yl]phenyl]methyl]-5H-pyrrolo[3,2-d]pyrimidine]
< 30 | < 100 | ≥ 10000 | < 100 | CCn1cc(C(F)(F)F)nc1-c1ccc(Cc2nn(C)c3cnc(-c4c(OC)ncnc4C4CC4)nc23)cc1 [Compound 106, 5-(4-cyclopropyl-6-methoxypyrimidin-5-yl)-3-(4-(1-ethyl-4-(trifluoromethyl)-1H-imidazol-2-yl)benzyl)-1-methyl-1H-pyrazolo[4,3-d]pyrimidine]
30 to 100 | 100 to 250 | ≥ 10000 | 250 to 10000 | COc1ncnc(C#N)c1-c1ncc2[nH]cc(Cc3ccc(-c4nc(C(F)(F)F)cn4C)cc3)c2n1 [Compound 134]
